Several values for one entry are separate records, joined by “and”; a condition that tells them apart may be missing. Equal values may be shown once.
Key:
sarcoma 180 = assay: solid tumor induced by sarcoma 180 tumor cells; format: in vivo, ICR mice; conditions: for tumor weight: control 7.1±0.1; for tumor weight / tumor volume: mean±S.E.M.; for tumor volume: control 8804±465.3
Procedure: For solid tumor development, ICR mice were injected with 0.1 ml of sarcoma 180 suspensions into the right hind limbs. After 6 days of tumor transplantation, mice randomized into six groups were injected i.p. with AS (50 and 100 mg/kg) and 5-FU (25 mg/kg) once a day for 9 days. Eight days later after treatment, animals were sacrificed by cervical […], and solid tumors were removed and weighed.

[1] = tested on: sarcoma 180 ascitic tumor; assay: survival time of mice with sarcoma 180 ascitic tumor; format: in vivo
[2] = tested on: Lewis lung carcinoma cells; assay: tumor growth in Lewis lung carcinoma-bearing mice; format: in vivo, C57BL/6 mice; conditions: for tumor growth inhibited (volume): vs saline
[3] = tested on: chick embryonic angiogenesis; assay: chorioallantoic membrane (CAM) assay; format: in vivo, chicken; conditions: for Eggs showing antiangiogenesis: avascular zone exceeded 3 mm
Procedure: The effect of acharan sulfate on the inhibition of angiogenesis was performed using the choroioallantoic membrane (CAM) assay. These assays essentially followed previously published procedures (Tanaka et al, 1986; Oikawa et al., 1990). In brief, fertilized chicken eggs were incubated in the constant humidified breeder at 37° C. On the third day of incubation, about 2 ml of egg albumin were aspirated by an 18-gauge hypodermic needle, to detach the developing CAM from the shell. One and half days later, sample-loaded thermanox coverslips (Nunc, Naperville, Ill.) were air-dried and applied to the CAM surface for testing of angiogenesis inhibition by AS. Two days later, 1 ml of 10% fat emulsion (Intralipose) was injected into the chorioallantoic membrane and the avascular zone was observed under a dissecting microscope. Inhibition of angiogenesis was assessed when the avascular zone exceeded 3 mm. In order to abolish the possibility of contaminant in AS, the depolymerized product by heparinase II as described above was also tested for the antiangiogenic activity. The concentration of AS used in this assay was selected based on the concentration of heparin that had previously been applied in the same assay (Collen et al., 2000).
On day 4.5, CAMs were treated with different doses of AS for 2 days. The dose-response relationship for the appearance of avascular zone was determined.

[4] = tested on: bFGF-induced angiogenesis; assay: mouse matrigel plug assay; format: in vivo, C57BL/6J mice
Procedure: The effect of acharan sulfate on the inhibition of angiogenesis was also evaluated in the matrigel plug assay. This assay was performed as previously described (Passaniti et al., 1992). Acharan sulfate, dissolved in water, bFGF and heparin, dissolved in 0.1% bovine serum albumen (BSA)/phosphate buffered saline (PBS) were mixed with liquid matrigel (Collaborative Biomedical Products, Bedford, Mass.) in proportions not exceeding 1% of the total volume of matrigel. A mixture of 0.5 ml matrigel with AS or vehicle was injected subcutaneously into C57BL/6J mice. After injection, the matrigel rapidly formed a plug. […] The amount of hemoglobin (Hb) inside the matrigel was measured using the Drabkin method (Drabkin and Austin, 1932) and Drabkin reagent 525 for the quantitation of blood vessel formation. The concentration of Hb was calculated based on a Hb standard measured simultaneously.
To evaluate the effect of AS on ongoing angiogenic process in the mouse matrigel plug assay matrigel, heparin (10 units/500 μl), and bFGF (100 ng/500 μl) with or without AS were injected s.c. into C57BL/6 mice. […] We next measured the hemoglobin content inside the matrigel plugs to quantify the angiogenesis. Whereas bFGF and heparin increased Hb concentration to 11.8 g/dl and the Hb concentration inside the control was 0.3 g/dl, AS decreased the heparin and bFGF-elevated Hb quantity to about 8.6 g/dl (FIG. 3). […]

[5] = tested on: calf pulmonary artery endothelial (CPAE) cells; assay: CPAE cell proliferation by MTT assay; format: cell-based; conditions: for growth inhibition: 3-day treatment
Procedure: The effect of acharan sulfate on in vitro cell proliferation was carried out using calf pulmonary artery endothelial (CPAE) cells as follows.
CPAE cells were seeded in a 24 well plate at a cell density of 10^5 cells/well in 90% RPMI and 10% FBS. After 24 h incubation, the cells were treated with various concentrations of AS. Three days later, new media and MTT solution were added to each well. After incubation at 37° C. for 4 h, the absorbance of treated cells at 540 nm was compared to that of control cells.

[6] = tested on: Lewis lung carcinoma cells; assay: tumor growth in Lewis lung carcinoma-bearing mice; format: in vivo, C57BL/6 mice; conditions: for tumor volume: saline 4534.4; for mean tumor weight reduction: day 21, vs saline; for tumor weight: day 21, saline 4.5±0.7
Procedure: Male C57BL/6 mice were inoculated s.c. in the back with LLC cells (1×10^6/animal) on day 0. After tumor volume was at least 60-100 mm^3, AS was administered into the subcutaneous region near the tumor mass at two doses of 10 and 30 mg/kg for 15 days. The size of tumors in all groups was measured using a dial-caliper and the volume of tumors was determined using the formula width^2×length×0.52 (Voest et al., 1995; Cao et al., 1995). The effects of AS on tumor growth and host survival were also measured by evaluating tumor volumes, tumor weights and percentage increase in lifespan of tumor hosts, respectively (Oguchi et al., 1987; Kusumoto, 1991). For calculating the survival time, mice were inoculated i.p. with […] sarcoma 180 cells/mouse on day 0 and the treatment with two doses of AS (50 and 100 mg/kg, i.p.) were started 24 h after inoculation for nine consecutive days. The control group was treated with saline. Median survival time (MST) for each group (n=7) was observed and the antitumor activity of the test compounds were compared with that of control group by measuring the increase in lifespan.

matrix metalloprotease = assay: antiprotease activity; format: biochemical
bFGF = bFGF (Homo sapiens, UniProt P09038); conditions: in vitro (Wang et al., 1997); cited from earlier work
[7] = 10 mg/kg daily s.c., end of 15-day treatment
[8] = 50 mg/kg i.p. once a day for 9 days, vs control
[9] = 50 mg/kg i.p. once a day for 9 days

Chain of bFGF (P09038 143-288, species assumed): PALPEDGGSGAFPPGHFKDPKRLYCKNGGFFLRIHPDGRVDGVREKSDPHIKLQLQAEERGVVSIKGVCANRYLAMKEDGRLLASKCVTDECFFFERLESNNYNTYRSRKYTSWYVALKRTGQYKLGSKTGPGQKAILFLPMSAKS

With `O=c1[nH]cc(F)c(=O)[nH]1` [5-FU, 5-fluorouracil] the tumor weight inhibited (sarcoma 180; 25 mg/kg i.p. once a day for 9 days, vs control) was 75.1% and 55.8%, the tumor weight (sarcoma 180; 25 mg/kg i.p. once a day for 9 days) was 1.8 ± 0.3 g and 3.1 ± 0.3 g and the tumor volume decreased (sarcoma 180; 5-FU 25 mg/kg i.p. once a day for 9 days, vs control) was 82.1%. The tumor volume (sarcoma 180; 5-FU 25 mg/kg i.p. once a day for 9 days) was 1572±201.5 mm^3 and the “median survival time (MST)” value ([1]; 25 mg/kg, control 22.4±2.2) was 42.8 ± 4.2 days.

For `COc1cccc2c1C(=O)c1c(O)c3c(c(O)c1C2=O)C[C@@](O)(C(=O)CO)C[C@@H]3O[C@H]1C[C@H](N)[C@H](O)[C@H](C)O1` [Doxorubicin], the “loss of weight of treated mice” value ([2]; 10 mg/kg i.v. every five day, compared with control mice) was “marked”, the tumor weight reduction ([2]; 10 mg/kg i.v. every five day, day 21, vs saline) was 68.0% and the tumor weight ([2]; 10 mg/kg i.v. every five day, day 21, saline 4.5±0.7) was 1.6 ± 0.2 g. The injection area ([2]; 10 mg/kg i.v. every five day, over the treatment) was “significantly damaged”, the “tumor growth inhibited (volume)” value ([2]; 10 mg/kg i.v. every five day) was 62.0% and the tumor volume ([2]; 10 mg/kg i.v. every five day, saline 4534.4) was 1721.6 mm^3.

In the case of `CC1=C(/C=C/C(C)=C/C=C/C(C)=C/C(=O)O)C(C)(C)CCC1` [Retinoic acid, all-trans-retinoic acid, reference compound], the “% inhibition” value ([3]; 1 μg/egg) is reported as 80% and the Eggs showing antiangiogenesis ([3]; 1 μg/egg, 25 eggs tested) is reported as 20.

In the case of Acharan sulfate [AS], the “% inhibition” value ([3]; 5 μg/egg) is reported as 48.3%, the Eggs showing antiangiogenesis ([3]; 5 μg/egg, 29 eggs tested) is reported as 14 and the “% inhibition” value ([3]; 10 μg/egg) is reported as 55.6%. The Eggs showing antiangiogenesis ([3]; 10 μg/egg, 27 eggs tested) was 15, the “vessel induction in matrigel” value ([4]; fifty micrograms of AS in combination with bFGF and heparin) was “slightly prevented the vessel induction” and the “Hb concentration inside the matrigel plug” value ([4]; fifty micrograms of AS with bFGF and heparin, s.c., seven days, bFGF and heparin alone 11.8, control 0.3) was “about 8.6 g/dl”. The growth inhibition ([5]; 1 μg/ml) was 15.2%, the growth inhibition ([5]; 10 μg/ml) was 24.9% and the “cytotoxic effect on CPAE cell viability” value ([5]; increasing concentrations, data not shown) was “no cytotoxic effect”. The tumor volume [6, 7] was 3049.2 mm^3, the “mean tumor weight reduction” value ([6]; 10 mg/kg s.c.) was 37.8% and the tumor weight ([6]; 10 mg/kg s.c.) was 2.8 ± 0.2 g. The “tumor growth inhibited (volume)” value ([6]; 30 mg/kg daily s.c., end of 15-day treatment, vs saline) was 38.1%, the tumor volume ([6]; 30 mg/kg daily s.c., end of 15-day treatment) was 2809.3 mm^3 and the “mean tumor weight reduction” value ([6]; 30 mg/kg s.c.) was 48.9%. The tumor weight ([6]; 30 mg/kg s.c.) was 2.3 ± 0.2 g, the “body weight of mice over the course of treatment” value ([6]; 10 and 30 mg/kg s.c., 15 days) was “did not lose weight” and the tumor volume inhibited (sarcoma 180; [8]) was 45.0%. For the same compound, the tumor weight inhibited (sarcoma 180; [8]) was 39.6%, the tumor weight (sarcoma 180; [9]) was 4.3 ± 0.1 g and the tumor volume (sarcoma 180; [9]) was 4799±345.2 mm^3. The “lifespan increased against the control group” value ([1]; 30 mg/kg/day for 9 consecutive days) was 1.5 fold, the median survival time ([1]; 30 mg/kg/day for 9 consecutive days, control 22.4±2.2) was 34.3 ± 2.6 days and the “lifespan prolonged against the control group” value ([1]; 50 mg/kg/day for 9 consecutive days) was 1.8 fold. The median survival time ([1]; 50 mg/kg/day for 9 consecutive days, control 22.4±2.2) was 40.6 ± 3.1 days, the antiprotease activity (matrix metalloprotease) was “no detectable antiprotease activity” and the “tumor growth inhibited (volume)” value [2, 7] was 32.8%. For the same compound, the “effect on heparin's bFGF mitogenicity” value (bFGF) was “interfered with heparin's bFGF mitogenicity in vitro”.

From patent publication US20050075312A1, “Antitumor inhibitors and use thereof” (priority 2003, published 2005)
